Laboratory results as given in patent publication US20230339978A1, “COMPOUNDS FOR PREVENTION OR TREATMENT OF NEURODEGENERATIVE DISORDERS” (1ST Biotherapeutics, Inc., priority 2020, published 2023).
Where two headings read alike, the source gives them in different places.

Experiments:
[1] = tested on: IL-6 secretion in BV-2 cell; assay: IL-6 Secretion in BV-2 Cell (L18-MDP stimulated, ELISA); format: cell-based; conditions: BV-2 mouse microglia cells, 10 µg/ml L18-MDP, 24 hr
Protocol: IL-6 Secretion in BV-2 Cell
BV-2 mouse microglia cells were kindly provided from Dr. Bae in Korea Institute of Science and Technology (KIST). BV-2 cells were thawed and suspended in Dulbecco’s modified eagle medium (DMEM) supplemented with 10% fetal bovine serum (FBS) and 1% Penicillin/Streptomycin. Cells were seeded into 96 well plates at 2X10^4 cells/well and allowed to attach for 24 hr. On the day of the experiment, various concentration of compounds were treated, and cells were stimulated with 10 µg/ml L18-MDP. After 24 hr incubation, supernatant was collected for cytokine assay.
Absorbance at 450 nm was measured using SpectraMax I3X microplate reader (Molecular Device). Values of media-only wells were subtracted and % inhibition for each compound concentration relative to the DMSO/L18-MDP-treated controls (100%) was calculated.

[2] = target: GST-tagged recombinant human RIPK2 (Homo sapiens (Human), UniProt O43353); assay: RIP2 Kinase Assay (ADP-Glo); format: biochemical; conditions: 25 µM ATP, MBP substrate, 30° C. 60 minutes
Protocol: GST-tagged recombinant human RIPK2(25 ng) is incubated with 5 µL of compounds (0.5% DMSO), 5 µL of MBP (0.5 µg/µl) and 5 µL of ATP (25 µM) in buffer (40 mM Tris, 7.5; 20 mM MgCl2; 0.1 mg/ml BSA; 50 µM DTT). The assay was started by incubating the reaction mixture in a 96-well plate at 30° C. for 60 minutes. After the incubation, 25 µL ADP-Glo reagent was added, and the reaction was incubated at 30° C. for 40 minutes to stop the reaction and degrade residual ATP. The ADP product was then converted to ATP by adding 50 µL per well of detection reagent. Luminescence was detected after 30 minutes room temperature incubation with the Molecular device I3X plate reader. The IC50 values were calculated from a series of percent inhibition values determined at a range of inhibitor concentration using software routines as implemented in the GraphPad Prism 7 software or SigmaPlot 13.0.

[3] = target: LRRK2 (WT) (Homo sapiens (Human), UniProt Q5S007); assay: LRRK2 kinase assay (Adapta); format: biochemical; conditions: 70 µM ATP, LRRKtide substrate
Protocol: (§1) LRRK2 and LRRK2 G2019S Kinase Assay
(§2) The LRRK2 and LRRK2 G2019S kinase assays were performed using the AdaptaTM technology in ThermoFisher Scientific. This experiment was carried out according to the supplier’s protocol. Briefly, assay conditions were as follows. The mixture of substrate (LRRKtide) and each kinase was prepared in 50 mM Tris pH 8.5, 0.01% BRIJ-35, 10 mM MgCl2, 1 mM EGTA, 0.02% NaN3. Assays were performed in the presence of 70 µM ATP and 100 µM ATP (KmATP) in LRRK2 and LRRK2 G2019S, respectively. The reaction was progressed at room temperature for 1 hour. Upon completion of kinase reaction, 5 µL of Detection Mix was added and after 60 min incubation time, the emission ratio of 665/615 nm was calculated

[4] = target: LRRK2 G2019S (Homo sapiens (Human), UniProt Q5S007, G2019S); assay: LRRK2 G2019S kinase assay (Adapta); format: biochemical; conditions: 100 µM ATP, LRRKtide substrate; read-out: LRRK2_G2019S IC50
Protocol: as §1, §2

[5] = target: T1, His-tagged recombinant human ABL1 (Homo sapiens (Human), UniProt P00519); conditions: read-out: c-Abl IC50; 25 µM ATP, Abltide substrate, 30° C. 30-min
Protocol: (§3) ADP-Glo assay kit was purchased from Promega. Magnesium chloride (MgCl2), bovine serum albumin (BSA), ethylene glycol-bis(β-aminoethyl ether)-N,N,N′,N′-tetraacetic acid (EGTA), tween-20, 1,4-dithiothreitol (DTT) and dimethyl sulfoxide (DMSO) were purchased from Sigma-Aldrich. HEPES buffer was purchased from Gibco. ABL1 kinase and Abltide were purchased from Signalchem.
(§4) c-Abl kinase activity was measured by Promega’s ADP-Glo ® Assay. In this assay, His-tagged recombinant human ABL1 (0.25 ng/µl) is incubated with 5 µL of compounds (0.5% DMSO), 5 µL of Abltide (0.01 µg/µl) and 5 µL of ATP (25 µM) in buffer (50 mM HEPES,7.5; 10 mM MgCl2; 1 mM EGTA; 0.05% BSA; 0.01% Tween-20; 2 mM DTT.). The assay was started by incubating the reaction mixture in a 96-well plate at 30° C. for 30-min. After the incubation, 25 µL ADP-Glo reagent was added and the reaction was incubated at room temperature for 40-min to stop the reaction and degrade residual ATP. The ADP product was then converted to ATP by adding 50 µL per well of detection reagent. Luminescence was detected after 30-min room temperature incubation with the Molecular device I3X plate reader. The IC50 values were calculated from a series of percent inhibition values determined at a range of inhibitor concentration using software routines as implemented in the GraphPad Prism 7 software and Sigma Plot 13.0.

[6] = target: T1, His-tagged recombinant human ABL1; assay: biochemical
Protocol: as §3, §4

Sequence of GST-tagged recombinant human RIPK2 (O43353 whole entry): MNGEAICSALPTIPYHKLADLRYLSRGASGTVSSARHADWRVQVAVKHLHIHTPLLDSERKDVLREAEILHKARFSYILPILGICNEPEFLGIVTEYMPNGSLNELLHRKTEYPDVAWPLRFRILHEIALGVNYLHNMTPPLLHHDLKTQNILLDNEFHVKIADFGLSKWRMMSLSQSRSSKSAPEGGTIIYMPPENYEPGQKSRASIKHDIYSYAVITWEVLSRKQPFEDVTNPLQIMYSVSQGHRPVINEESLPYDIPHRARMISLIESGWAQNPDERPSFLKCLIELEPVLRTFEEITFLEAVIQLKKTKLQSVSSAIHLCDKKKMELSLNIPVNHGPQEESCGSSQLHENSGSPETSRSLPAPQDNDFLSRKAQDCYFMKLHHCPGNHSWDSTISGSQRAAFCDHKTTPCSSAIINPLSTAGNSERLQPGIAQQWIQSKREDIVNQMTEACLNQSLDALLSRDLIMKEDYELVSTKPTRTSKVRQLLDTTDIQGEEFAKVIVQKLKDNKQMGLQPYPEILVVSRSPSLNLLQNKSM
T1 sequence (P00519 whole entry): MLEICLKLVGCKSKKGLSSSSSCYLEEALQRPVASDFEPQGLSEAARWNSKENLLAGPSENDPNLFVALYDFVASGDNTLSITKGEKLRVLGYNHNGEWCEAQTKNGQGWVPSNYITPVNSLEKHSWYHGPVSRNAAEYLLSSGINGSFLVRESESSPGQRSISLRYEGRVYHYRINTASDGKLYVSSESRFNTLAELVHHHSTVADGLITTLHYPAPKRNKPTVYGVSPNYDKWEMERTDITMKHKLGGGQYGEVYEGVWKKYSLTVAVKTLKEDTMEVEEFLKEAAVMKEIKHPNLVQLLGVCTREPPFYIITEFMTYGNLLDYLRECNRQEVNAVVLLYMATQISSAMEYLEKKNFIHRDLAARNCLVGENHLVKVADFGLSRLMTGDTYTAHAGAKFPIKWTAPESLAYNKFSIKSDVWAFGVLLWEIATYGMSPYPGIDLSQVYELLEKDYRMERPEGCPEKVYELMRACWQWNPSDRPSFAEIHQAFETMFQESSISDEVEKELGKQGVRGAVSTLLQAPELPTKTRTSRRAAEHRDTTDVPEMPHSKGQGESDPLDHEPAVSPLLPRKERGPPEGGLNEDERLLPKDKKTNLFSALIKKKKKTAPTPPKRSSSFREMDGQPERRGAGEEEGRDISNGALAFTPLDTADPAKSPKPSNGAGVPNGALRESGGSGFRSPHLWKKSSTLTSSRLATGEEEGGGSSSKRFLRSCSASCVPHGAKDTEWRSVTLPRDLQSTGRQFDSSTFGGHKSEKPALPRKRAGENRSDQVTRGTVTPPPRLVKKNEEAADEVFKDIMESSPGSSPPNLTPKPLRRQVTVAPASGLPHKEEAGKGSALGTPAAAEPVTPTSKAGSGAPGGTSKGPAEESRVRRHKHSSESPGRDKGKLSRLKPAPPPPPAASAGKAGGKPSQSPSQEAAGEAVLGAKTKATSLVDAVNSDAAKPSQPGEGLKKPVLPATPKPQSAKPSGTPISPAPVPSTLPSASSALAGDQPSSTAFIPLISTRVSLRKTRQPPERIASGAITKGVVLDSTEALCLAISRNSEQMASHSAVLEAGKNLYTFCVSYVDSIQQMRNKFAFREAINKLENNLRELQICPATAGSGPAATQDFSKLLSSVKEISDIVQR
Sequence of LRRK2 G2019S (Q5S007 whole entry G2019S): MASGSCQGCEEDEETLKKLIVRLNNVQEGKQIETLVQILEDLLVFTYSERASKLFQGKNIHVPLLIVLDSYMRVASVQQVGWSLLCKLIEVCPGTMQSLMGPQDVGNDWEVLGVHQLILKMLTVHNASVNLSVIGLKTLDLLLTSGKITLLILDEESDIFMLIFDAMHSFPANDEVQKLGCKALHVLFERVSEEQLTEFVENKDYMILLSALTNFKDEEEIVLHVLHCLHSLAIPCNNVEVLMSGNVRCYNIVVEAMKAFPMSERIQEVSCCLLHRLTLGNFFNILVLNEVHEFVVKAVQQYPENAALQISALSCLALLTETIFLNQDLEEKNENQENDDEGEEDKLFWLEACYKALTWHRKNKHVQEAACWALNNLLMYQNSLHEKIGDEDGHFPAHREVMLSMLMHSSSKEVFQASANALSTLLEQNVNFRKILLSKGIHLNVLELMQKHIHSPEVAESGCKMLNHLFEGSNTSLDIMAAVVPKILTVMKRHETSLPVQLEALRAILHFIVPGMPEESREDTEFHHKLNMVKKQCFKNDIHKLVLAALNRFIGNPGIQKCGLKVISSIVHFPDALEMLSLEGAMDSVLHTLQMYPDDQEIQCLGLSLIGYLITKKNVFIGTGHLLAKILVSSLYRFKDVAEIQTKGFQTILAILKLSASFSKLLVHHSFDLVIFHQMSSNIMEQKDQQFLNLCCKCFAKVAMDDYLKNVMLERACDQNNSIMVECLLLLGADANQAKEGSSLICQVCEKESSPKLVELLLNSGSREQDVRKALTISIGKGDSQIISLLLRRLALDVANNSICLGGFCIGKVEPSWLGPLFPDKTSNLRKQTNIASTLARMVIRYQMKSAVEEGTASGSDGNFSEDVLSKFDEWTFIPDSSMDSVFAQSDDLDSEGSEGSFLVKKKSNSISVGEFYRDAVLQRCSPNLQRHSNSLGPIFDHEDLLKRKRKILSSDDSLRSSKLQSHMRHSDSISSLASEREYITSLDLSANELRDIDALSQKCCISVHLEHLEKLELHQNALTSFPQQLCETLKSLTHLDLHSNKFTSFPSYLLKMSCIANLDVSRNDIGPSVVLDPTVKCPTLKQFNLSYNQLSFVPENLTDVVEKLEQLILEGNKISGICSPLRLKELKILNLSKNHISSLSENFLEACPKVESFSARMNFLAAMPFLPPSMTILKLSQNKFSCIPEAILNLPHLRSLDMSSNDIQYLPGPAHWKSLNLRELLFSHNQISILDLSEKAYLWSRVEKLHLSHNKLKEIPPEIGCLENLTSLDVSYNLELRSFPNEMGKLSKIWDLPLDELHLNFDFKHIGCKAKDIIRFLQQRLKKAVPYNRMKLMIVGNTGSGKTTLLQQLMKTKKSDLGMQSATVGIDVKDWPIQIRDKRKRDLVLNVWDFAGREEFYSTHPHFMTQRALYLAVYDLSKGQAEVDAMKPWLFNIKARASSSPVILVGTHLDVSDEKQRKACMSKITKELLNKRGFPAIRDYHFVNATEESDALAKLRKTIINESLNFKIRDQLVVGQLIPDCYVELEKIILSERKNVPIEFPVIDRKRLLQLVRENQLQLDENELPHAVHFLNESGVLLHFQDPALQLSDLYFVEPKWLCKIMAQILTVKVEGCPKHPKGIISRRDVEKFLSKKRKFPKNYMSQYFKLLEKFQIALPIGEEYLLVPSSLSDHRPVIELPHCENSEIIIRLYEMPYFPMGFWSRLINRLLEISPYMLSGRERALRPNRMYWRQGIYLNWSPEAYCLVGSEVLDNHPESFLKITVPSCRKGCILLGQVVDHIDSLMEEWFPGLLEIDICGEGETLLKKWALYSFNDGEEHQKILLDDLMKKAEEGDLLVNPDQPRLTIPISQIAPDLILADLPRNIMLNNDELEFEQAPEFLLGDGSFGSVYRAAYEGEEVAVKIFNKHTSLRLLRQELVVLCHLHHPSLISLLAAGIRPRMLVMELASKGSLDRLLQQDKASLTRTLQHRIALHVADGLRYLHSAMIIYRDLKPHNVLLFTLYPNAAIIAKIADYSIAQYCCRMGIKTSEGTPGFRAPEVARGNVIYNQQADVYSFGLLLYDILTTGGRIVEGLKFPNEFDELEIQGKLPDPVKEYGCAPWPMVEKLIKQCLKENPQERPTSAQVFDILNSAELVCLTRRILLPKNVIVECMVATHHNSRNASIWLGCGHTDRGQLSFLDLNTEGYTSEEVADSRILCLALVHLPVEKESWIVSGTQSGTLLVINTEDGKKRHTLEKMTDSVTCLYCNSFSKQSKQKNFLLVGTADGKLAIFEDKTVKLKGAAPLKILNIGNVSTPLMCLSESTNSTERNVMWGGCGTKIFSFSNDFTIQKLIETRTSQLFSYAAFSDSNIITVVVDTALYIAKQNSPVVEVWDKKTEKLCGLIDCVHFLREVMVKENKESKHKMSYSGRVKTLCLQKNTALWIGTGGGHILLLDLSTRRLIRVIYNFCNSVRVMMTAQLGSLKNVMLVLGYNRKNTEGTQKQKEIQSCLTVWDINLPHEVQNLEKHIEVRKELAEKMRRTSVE
Sequence of LRRK2 (WT) (Q5S007 whole entry, species assumed): as the sequence (Q5S007 whole entry G2019S) above, with S2019G counted along it

IC50 [1] [nM] | IC50 [2] [nM] | IC50 [3] [nM] | IC50 [4] [nM] | IC50 [5] [nM] | IC50 [6] [nM] | SMILES
187 | 11 | 55.7 | 28 | 0.71 |  | O=C(Nc1cc2cc(-c3cnc4[nH]ccc4c3)ccn2n1)[C@@H]1C[C@@H]1F [Example 1, (1S,2S)-N-(5-(1 H-pyrrolo[2,3-b]pyridin-5-yl)pyrazolo[1,5-a]pyridin-2-yl)-2-fluorocyclopropane-1-carboxamide]
68.6 | 6.67 | 36.5 | 15 | 7.6 |  | O=C(Nc1cc2cc(-c3cnc4[nH]ccc4c3Cl)ccn2n1)[C@@H]1C[C@@H]1F [Example 2, (1S,2S)-N-(5-(4-chloro-1 H-pyrrolo[2,3-b]pyridin-5-yl)pyrazolo[1,5-a]pyridin-2-yl)-2-fluorocyclopropane-1-carboxamide]
82.9 | 11.4 |  |  |  | 2.4 | Cc1c(-c2ccn3nc(NC(=O)C4CC4)cc3c2)cnc2[nH]ccc12 [Example 19, N-(5-(4-methyl-1H-pyrrolo[2,3-b]pyridin-5-yl)pyrazolo[1,5-a]pyridin-2-yl)cyclopropanecarboxamide]
107 | 10.2 |  |  | 7.2 |  | O=C(Nc1cc2cc(-c3cnc4[nH]cc(F)c4c3Cl)ccn2n1)[C@@H]1C[C@@H]1F [Example 30, (1S,2S)-N-(5-(4-chloro-3-fluoro-1H-pyrrolo[2,3-b]pyridin-5-yl)pyrazolo[1,5-a]pyridin-2-yl)-2-fluorocyclopropane-1-carboxamide]
